Numbers after ± are expanded uncertainties.
Assay: xn = mol fraction of the nth substance listed
Conditions: 100.8 kPa, Liquid

CC1CCCCC1 [methylcyclohexane] + CCO
Conditions	mass density, 288.15 K [kg/m3]	mass density, 298.15 K [kg/m3]	mass density, 308.15 K [kg/m3]	viscosity, 288.15 K [mPa·s]	viscosity, 298.15 K [mPa·s]	viscosity, 308.15 K [mPa·s]
x2 = 0	–	765 ± 0.3	756.3 ± 0.3	–	0.685 ± 0.009	0.6 ± 0.008
x2 = 0.05	–	764.6 ± 0.3	755.8 ± 0.3	–	0.674 ± 0.009	0.589 ± 0.008
x2 = 0.1	–	764.7 ± 0.3	755.7 ± 0.3	–	0.67 ± 0.009	0.588 ± 0.008
x2 = 0.15	–	764.8 ± 0.3	755.8 ± 0.3	–	0.667 ± 0.009	0.585 ± 0.008
x2 = 0.2	–	765.1 ± 0.3	756.1 ± 0.3	–	0.673 ± 0.009	0.588 ± 0.008
x2 = 0.25	–	765.4 ± 0.3	756.4 ± 0.3	–	0.681 ± 0.009	0.593 ± 0.008
x2 = 0.3	–	765.8 ± 0.3	756.8 ± 0.3	–	0.694 ± 0.009	0.602 ± 0.008
x2 = 0.35	–	766.2 ± 0.3	757.2 ± 0.3	–	0.707 ± 0.009	0.612 ± 0.008
x2 = 0.4	–	766.8 ± 0.3	757.8 ± 0.3	–	0.722 ± 0.009	0.623 ± 0.008
x2 = 0.45	–	767.4 ± 0.3	758.4 ± 0.3	–	0.739 ± 0.01	0.635 ± 0.009
x2 = 0.5	–	768.1 ± 0.3	759.1 ± 0.3	–	0.757 ± 0.01	0.65 ± 0.009
x2 = 0.55	–	768.9 ± 0.3	759.9 ± 0.3	–	0.778 ± 0.01	0.666 ± 0.009
x2 = 0.6	–	769.8 ± 0.3	760.8 ± 0.3	–	0.799 ± 0.01	0.683 ± 0.009
x2 = 0.65	–	770.8 ± 0.3	761.8 ± 0.3	–	0.82 ± 0.01	0.7 ± 0.009
x2 = 0.7	–	772 ± 0.3	763.1 ± 0.3	–	0.843 ± 0.011	0.72 ± 0.009
x2 = 0.75	782.1 ± 0.3	773.4 ± 0.3	764.5 ± 0.3	1.043 ± 0.013	0.867 ± 0.011	0.74 ± 0.01
x2 = 0.8	783.6 ± 0.3	774.9 ± 0.3	766 ± 0.3	1.077 ± 0.013	0.894 ± 0.011	0.762 ± 0.01
x2 = 0.85	785.4 ± 0.3	776.7 ± 0.3	767.9 ± 0.3	1.114 ± 0.014	0.926 ± 0.012	0.79 ± 0.01
x2 = 0.9	787.7 ± 0.3	779 ± 0.3	770.2 ± 0.3	1.164 ± 0.014	0.971 ± 0.012	0.828 ± 0.011
x2 = 0.95	790.4 ± 0.3	781.8 ± 0.3	773 ± 0.3	1.225 ± 0.015	1.021 ± 0.013	0.867 ± 0.011

From the NIST ThermoML archive (doi:10.1021/je050031f)
